Measurements reported in ChEMBL document CHEMBL1201862, “PubChem BioAssay data set” (2004).
Calls of active or inactive are those of the source.

Experiments:
[1] = target: T1, Short transient receptor potential channel 4 (Mus musculus, UniProt Q9QUQ5); assay: mouse TRPC4 channel inhibitors, dose response, cell-based, HEK293 TRPC4/mu-opioid, Fluo-4 calcium (AID 434942); assay type: functional;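 further: potency of inhibitors blocking the TRPC4 calcium response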
T1 sequence (Q9QUQ5 whole entry): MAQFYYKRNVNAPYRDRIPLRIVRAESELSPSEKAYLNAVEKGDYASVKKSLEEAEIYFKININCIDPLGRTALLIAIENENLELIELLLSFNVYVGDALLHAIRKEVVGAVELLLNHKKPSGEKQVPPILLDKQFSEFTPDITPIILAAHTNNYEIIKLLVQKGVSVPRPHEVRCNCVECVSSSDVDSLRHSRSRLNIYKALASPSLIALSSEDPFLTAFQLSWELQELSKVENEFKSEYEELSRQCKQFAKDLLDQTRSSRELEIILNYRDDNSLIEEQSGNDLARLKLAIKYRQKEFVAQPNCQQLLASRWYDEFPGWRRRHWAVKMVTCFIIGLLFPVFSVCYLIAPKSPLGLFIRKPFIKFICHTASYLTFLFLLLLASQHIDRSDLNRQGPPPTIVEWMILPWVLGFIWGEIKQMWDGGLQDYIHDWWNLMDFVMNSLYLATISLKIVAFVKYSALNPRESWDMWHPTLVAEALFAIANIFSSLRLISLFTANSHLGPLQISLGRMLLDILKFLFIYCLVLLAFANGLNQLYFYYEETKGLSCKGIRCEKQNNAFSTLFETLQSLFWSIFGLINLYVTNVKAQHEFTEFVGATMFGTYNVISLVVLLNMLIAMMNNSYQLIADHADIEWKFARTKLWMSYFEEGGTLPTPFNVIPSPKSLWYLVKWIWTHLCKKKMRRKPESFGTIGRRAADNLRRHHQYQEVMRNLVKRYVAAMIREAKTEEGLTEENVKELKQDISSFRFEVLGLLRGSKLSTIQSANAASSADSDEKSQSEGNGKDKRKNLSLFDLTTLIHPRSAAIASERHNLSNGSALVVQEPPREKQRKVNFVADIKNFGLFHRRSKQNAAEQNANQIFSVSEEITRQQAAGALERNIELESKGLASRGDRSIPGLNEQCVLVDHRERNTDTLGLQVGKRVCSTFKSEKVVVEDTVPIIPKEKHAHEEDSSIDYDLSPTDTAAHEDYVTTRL

[2] = target: T2, Rac GTPase-activating protein 1 (Homo sapiens, UniProt Q9H0H5); assay: MgcRacGAP GTPase-activating activity inhibitors, confirmation, biochemical, ADP Hunter fluorescence, primary and confirmatory (AID 624330); assay type: functional
T2 sequence (Q9H0H5 whole entry): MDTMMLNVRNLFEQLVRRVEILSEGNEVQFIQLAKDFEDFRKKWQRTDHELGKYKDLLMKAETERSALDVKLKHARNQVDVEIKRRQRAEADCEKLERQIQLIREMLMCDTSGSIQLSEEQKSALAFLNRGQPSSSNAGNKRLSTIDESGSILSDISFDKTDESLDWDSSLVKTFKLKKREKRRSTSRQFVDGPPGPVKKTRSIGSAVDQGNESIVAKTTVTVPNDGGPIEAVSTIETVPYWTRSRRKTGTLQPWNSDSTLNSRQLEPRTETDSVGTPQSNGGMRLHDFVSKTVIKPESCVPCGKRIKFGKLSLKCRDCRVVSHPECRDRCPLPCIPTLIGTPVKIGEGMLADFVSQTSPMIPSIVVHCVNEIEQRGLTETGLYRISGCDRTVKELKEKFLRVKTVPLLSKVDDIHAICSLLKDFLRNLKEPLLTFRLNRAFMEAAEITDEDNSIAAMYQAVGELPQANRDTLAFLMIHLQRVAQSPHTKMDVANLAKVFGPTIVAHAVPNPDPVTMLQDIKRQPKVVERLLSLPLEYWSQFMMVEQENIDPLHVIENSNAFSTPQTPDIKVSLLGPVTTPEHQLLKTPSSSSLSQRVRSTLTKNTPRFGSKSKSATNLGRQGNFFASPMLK

[3] = cells; assay type: functional
[4] = target: T3, Polyadenylate-binding protein 1 (Homo sapiens, UniProt P11940); assay: PABP1 MLLE–PAM2 interaction inhibitors, dose response, miRNA deadenylation inhibitor project, biochemical, fluorescence polarization, Cy5-PAM2 peptide, secondary (AID 602260); assay type: functional; conditions: read-out: IC50_Mean
T3 sequence (P11940 whole entry): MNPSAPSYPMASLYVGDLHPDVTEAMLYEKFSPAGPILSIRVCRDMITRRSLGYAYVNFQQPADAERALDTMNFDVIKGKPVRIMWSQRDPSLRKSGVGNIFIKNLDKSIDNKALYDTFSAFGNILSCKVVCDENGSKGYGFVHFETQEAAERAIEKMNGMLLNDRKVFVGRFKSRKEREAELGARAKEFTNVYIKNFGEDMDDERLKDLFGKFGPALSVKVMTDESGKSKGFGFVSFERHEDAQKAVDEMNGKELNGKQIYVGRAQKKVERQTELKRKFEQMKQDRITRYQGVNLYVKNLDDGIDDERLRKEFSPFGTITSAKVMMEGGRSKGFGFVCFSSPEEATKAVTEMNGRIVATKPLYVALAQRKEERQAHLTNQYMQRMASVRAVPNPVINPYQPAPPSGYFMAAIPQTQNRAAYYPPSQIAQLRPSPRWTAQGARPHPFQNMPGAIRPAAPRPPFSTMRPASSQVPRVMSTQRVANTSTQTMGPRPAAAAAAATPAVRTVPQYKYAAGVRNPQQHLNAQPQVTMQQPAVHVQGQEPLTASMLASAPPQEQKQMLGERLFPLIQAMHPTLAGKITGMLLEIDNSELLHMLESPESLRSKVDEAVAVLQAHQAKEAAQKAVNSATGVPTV

[5] = target: T3, Polyadenylate-binding protein 1; assay: PABP1 MLLE–PAM2 binding inhibitor potency, dose response, biochemical, fluorescence polarization, FITC-PAM2 peptide (AID 602259); assay type: functional; conditions: read-out: IC50_Mean
[6] = HEp-2 cell cytotoxicity, dose response, cytotoxicity control for RSV inhibitor project, HTS (AID 2410); assay type: functional; conditions: human respiratory syncytial virus
[7] = cells; assay type: functional, cell-based
[8] = cells; assay type: functional, cell-based; remark: listed apart in the source
[9] = target: Nonstructural protein 1 (Influenza A virus, UniProt Q194T2); assay type: functional, Influenza A virus (A/California/07/2009(H1N1))
Chain of Nonstructural protein 1 (Q194T2 whole entry): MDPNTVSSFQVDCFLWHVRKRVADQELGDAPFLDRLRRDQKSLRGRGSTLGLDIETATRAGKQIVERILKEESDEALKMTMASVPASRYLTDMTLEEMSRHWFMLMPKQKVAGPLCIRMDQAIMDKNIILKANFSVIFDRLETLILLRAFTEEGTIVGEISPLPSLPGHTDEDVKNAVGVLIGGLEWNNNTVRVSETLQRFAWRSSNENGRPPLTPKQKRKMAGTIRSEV

[10] = control 3'UTR Renilla luciferase suppression, dose response, counter-screen for Shn3 inhibitor project, cell-based, Clone20-Shn3RL, cherry-picked (AID 624133); assay type: functional
[11] = Luminescence Cell-Based Dose Response HTS to Identify Inhibitors of 5'UTR Stem-Loop Driven Prion Protein mRNA Translation in H4 Neuroglioblastoma Cells. [Related pubchem assays: 1827 (Project Summary), 1813 (Primary HTS)]; assay type: functional

In the case of `CC(C)C1=Nc2cccc3cccc(c23)N1`, the EC50 [1] is reported as 2.37 µM (active) and the IC50 [2] is reported as 26.3 µM (active).
In the case of `O=c1c(=Nc2ccccc2O)c(=O)c2ccccc12`, the IC50 [3] is reported as 3.81 µM (active).
For `CCOC(=O)C1CCN(C(=O)COC(=O)CSc2ccc([N+](=O)[O-])cc2)CC1`, the IC50 [4] was > 66 µM (inactive) and the IC50 [5] was > 66 µM (inactive).
In the case of `CCOc1ccc2c(c1)c1nnc(SCC3CCCO3)nc1n2C` (stereo not given), the CC50 [6] is reported as > 50 µM (active), the EC50 [7] is reported as > 350 µM (not active) and the EC50 [8] is reported as 52.4 µM (active).
In the case of `Cc1cccc(N(Cc2ccccc2)C(=O)CSC(C)C(=O)Nc2cc(C)on2)c1` (stereo not given), the EC50 [1] is reported as 2.11 µM (active).
For `COCCN=C(S)N(CCO)Cc1cc2cc3c(cc2nc1O)OCCO3`, the IC50 [4] was > 66 µM (inactive) and the IC50 [5] was > 66 µM (inactive).
In the case of `O=C(COC(=O)c1ccccc1Cl)NCCC1=CCCCC1`, the IC50 [3] is reported as 29.9 µM (active).
In the case of `OC(COc1ccccc1)CN1C2=NCCCN2c2ccccc21` (stereo not given), the EC50 [1] is reported as 13.3 µM (active).
With `CC1CCCN(C(=O)c2ccc3c(c2NCCO)C(=O)c2ccccc2C3=O)C1` (stereo not given) the IC50 [9] was 22 µM (active).
For `CC(C)n1c(NCc2c[nH]c3ccccc23)nc2ccccc21`, the EC50 [1] was 1.68 µM (active).
For `CCOc1ccc(NC(=S)NC(=O)c2c(Cl)c(C)nn2C)c([N+](=O)[O-])c1`, the IC50 [4] was > 66 µM (inactive) and the IC50 [5] was > 66 µM (inactive).
In the case of `Cc1cccc(C(=O)Nc2nnc(-c3cccnc3)o2)c1`, the IC50 [3] is reported as 9.52 µM (active).
For `CCC(SCC(=O)OC)C(=O)Nc1nnc(C(C)C)s1` (stereo not given), the IC50 [4] was > 66 µM (inactive) and the IC50 [5] was > 66 µM (inactive).
In the case of `CCOc1ccc(CN2CCN(C(=O)c3ccccc3)CC2)cc1`, the EC50 [1] is reported as 6.68 µM (active).
For `O=C(NCCCN1CCOCC1)c1ccc(NC(=O)C2COc3ccccc3O2)cc1` (stereo not given), the EC50 [1] was 15 µM (active).
For `CC(C)(C)N(Cc1ccccc1)C(=O)COC(=O)CCc1c[nH]c2ccccc12`, the AC50 [10] was 25.9 µM (active).
In the case of `O=C(NC(=S)N1CCCC1)c1ccccc1F`, the IC50 [4] is reported as > 66 µM (inactive) and the IC50 [5] is reported as > 66 µM (inactive).
With `O=C1/C(=C\c2ccc(-c3ccccc3[N+](=O)[O-])o2)C(c2ccccc2)=NN1c1ccccc1` the IC50 [9] was 21.3 µM (active).
With `CC1CN=C(/C=C(\O)c2ccc(Br)cc2)C(=O)N1` (stereo not given) the EC50 [7] was > 350 µM (not active), the EC50 [11] was 11.6 µM (inconclusive) and the EC50 [8] was 35.6 µM (active).
For `Cc1ccc(-c2cc(C(=O)Nc3cccnc3)[nH]n2)c(O)c1C`, the EC50 [7] was > 350 µM (not active) and the EC50 [8] was 7.01 µM (active).
With `CCCC(C)NC(=O)CN1C(=O)NC2(CCc3ccccc32)C1=O` (stereo not given) the EC50 [7] was > 350 µM (not active) and the EC50 [8] was > 350 µM (not active).
With `COc1ccc(N2CCN(CCCNC(=O)c3cc4sccc4n3C)CC2)cc1` the IC50 [9] was 39.4 µM (active).
In the case of `Cc1ccc2cc(CN(CCN3CCOCC3)C(=O)NCc3ccccc3)c(O)nc2c1C`, the EC50 [1] is reported as 4.22 µM (active).
With `COc1cc2ccccc2cc1C(=O)NC(=S)Nc1cccc(C(=O)O)c1` the IC50 [4] was > 66 µM (inactive) and the IC50 [5] was > 66 µM (inactive).
In the case of `COC(=O)Cc1ccc(NC(S)=NC(C)(C)C)cc1`, the EC50 [7] is reported as > 350 µM (not active) and the EC50 [8] is reported as > 350 µM (not active).
With `O/C(=C(\C([S-])=Nc1cccc2ccccc12)[n+]1ccccc1)c1cccs1` the EC50 [7] was > 350 µM (not active) and the EC50 [8] was > 350 µM (not active).
With `O=C(Cc1ccc(F)cc1)N1CCN=C1SCc1ccc([N+](=O)[O-])cc1` the IC50 [4] was > 66 µM (inactive) and the IC50 [5] was > 66 µM (inactive).
With `Cn1nnc(NC(=S)NC(=O)c2cccc3c(Br)cccc23)n1` the IC50 [4] was > 66 µM (inactive) and the IC50 [5] was > 66 µM (inactive).
